Tests used:
bedstraw = test: Test B pre/postemergence bedstraw; format: in vivo, Galium aparine
Method in brief: (§1)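 Response is a visual 0-to-10 score relative to untreated plants, where 0 means no effect and 10 means complete control, taken twelve to sixteen days after application. Treatments went onto soil at planting and onto foliage of 1- to 4-leaf plants, using a surfactant-containing non-phytotoxic solvent.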

blackgrass = test: Test B pre/postemergence blackgrass; format: in vivo, Alopecurus myosuroides
Method in brief: as §1

surinam grass = test: Test B pre/postemergence surinam grass; format: in vivo, Brachiaria decumbens
Method in brief: as §1

cocklebur = test: Test B pre/postemergence cocklebur; format: in vivo, Xanthium strumarium
Method in brief: as §1

corn = test: Test B pre/postemergence corn; format: in vivo, Zea mays
Method in brief: as §1

crabgrass = test: Test B pre/postemergence crabgrass; format: in vivo, Digitaria sanguinalis
Method in brief: as §1

giant foxtail = test: Test B pre/postemergence giant foxtail; format: in vivo, Setaria faberii
Method in brief: as §1

morningglory = test: Test B pre/postemergence morningglory; format: in vivo, Ipomoea hederacea
Method in brief: as §1

pigweed = test: Test B pre/postemergence pigweed; format: in vivo, Amaranthus retroflexus
Method in brief: as §1

rape = test: Test B pre/postemergence rape; format: in vivo, Brassica napus
Method in brief: as §1

soybean = test: Test B pre/postemergence soybean; format: in vivo, Glycine max
Method in brief: as §1

sugar beet = test: Test B pre/postemergence sugar beet; format: in vivo, Beta vulgaris
Method in brief: as §1

velvetleaf = test: Test B pre/postemergence velvetleaf; format: in vivo, Abutilon theophrasti
Method in brief: as §1

wheat = test: Test B pre/postemergence wheat; format: in vivo, Triticum aestivum
Method in brief: as §1

wild oat = test: Test B pre/postemergence wild oat; format: in vivo, Avena fatua
Method in brief: as §1

purple nutsedge = test: Test B pre/postemergence purple nutsedge; format: in vivo, Cyperus rotundus
Method in brief: as §1

[1] = Postemergence, Rate 62 g/ha, scale 0 to 10, 0 is no effect, 10 is complete control
[2] = Postemergence, Rate 125 g/ha, scale of 0 to 10 where 0 is no effect and 10 is complete control
[3] = Postemergence, Rate 250 g/ha, scale of 0 to 10, 0 is no effect, 10 is complete control
[4] = Preemergence, Rate 62 g/ha, scale of 0 to 10 where 0 is no effect and 10 is complete control
[5] = Preemergence, Rate 125 g/ha, scale of 0 to 10 where 0 is no effect and 10 is complete control
[6] = Preemergence, Rate 250 g/ha, scale 0 to 10 (0 no effect, 10 complete control)
[7] = Preemergence, Rate 500 g/ha, scale of 0 to 10 where 0 is no effect and 10 is complete control
[8] = Postemergence, Rate 500 g/ha, scale of 0 to 10 where 0 is no effect and 10 is complete control

## CCCCn1c(=O)on(C(=O)N(c2ccc(F)cc2F)C(C)C)c1=O [Compound 635]
bedstraw; [1]
  Plant response rating, Bedstraw: 5
bedstraw; [2]
  Plant response rating, Bedstraw: 7
bedstraw; [3]
  Bedstraw plant response rating: 9
bedstraw; [4]
  Bedstraw plant response rating: 9
bedstraw; [5]
  Bedstraw plant response rating: 8
bedstraw; [6]
  Plant response rating, Bedstraw: 7
bedstraw; [7]
  Plant response rating, Bedstraw: 9
blackgrass; [1]
  Plant response rating, Blackgrass: 2
blackgrass; [2]
  Plant response rating, Blackgrass: 3
blackgrass; [3]
  Blackgrass plant response rating: 7
blackgrass; [4]
  Blackgrass plant response rating: 9
blackgrass; [6]
  Plant response rating, Blackgrass: 9
blackgrass; [7]
  Plant response rating, Blackgrass: 8
Surinam grass; [1]
  Plant response rating, B. signalgrass: 0
Surinam grass; [2]
  Plant response rating, B. signalgrass: 0
Surinam grass; [3]
  B. signalgrass plant response rating: 2
Surinam grass; [8]
  Plant response rating, B. signalgrass: 8
Surinam grass; [4]
  B. signalgrass plant response rating: 4
Surinam grass; [5]
  B. signalgrass plant response rating: 8
Surinam grass; [6]
  Plant response rating, B. signalgrass: 9
Surinam grass; [7]
  Plant response rating, B. signalgrass: 9
cocklebur; [1]
  Plant response rating, Cocklebur: 2
cocklebur; [2]
  Plant response rating, Cocklebur: 2
cocklebur; [3]
  Cocklebur plant response rating: 3
cocklebur; [8]
  Plant response rating, Cocklebur: 3
cocklebur; [4]
  Cocklebur plant response rating: 0
cocklebur; [5]
  Cocklebur plant response rating: 0
cocklebur; [6]
  Plant response rating, Cocklebur: 0
cocklebur; [7]
  Plant response rating, Cocklebur: 0
corn; [1]
  Plant response rating, Corn: 0
corn; [2]
  Plant response rating, Corn: 0
corn; [3]
  Corn plant response rating: 0
corn; [8]
  Plant response rating, Corn: 2
corn; [4]
  Corn plant response rating: 0
corn; [6]
  Plant response rating, Corn: 2
corn; [7]
  Plant response rating, Corn: 8
crabgrass; [1]
  Plant response rating, Crabgrass: 4
crabgrass; [2]
  Plant response rating, Crabgrass: 9
crabgrass; [3]
  Crabgrass plant response rating: 8
crabgrass; [8]
  Plant response rating, Crabgrass: 9
crabgrass; [4]
  Crabgrass plant response rating: 9
crabgrass; [5]
  Crabgrass plant response rating: 9
crabgrass; [6]
  Plant response rating, Crabgrass: 9
crabgrass; [7]
  Plant response rating, Crabgrass: 9
Giant foxtail; [1]
  Plant response rating, Giant foxtail: 5
Giant foxtail; [2]
  Plant response rating, Giant foxtail: 8
Giant foxtail; [3]
  Giant foxtail plant response rating: 8
Giant foxtail; [8]
  Plant response rating, Giant foxtail: 9
Giant foxtail; [4]
  Giant foxtail plant response rating: 9
Giant foxtail; [5]
  Giant foxtail plant response rating: 9
Giant foxtail; [6]
  Plant response rating, Giant foxtail: 10
Giant foxtail; [7]
  Plant response rating, Giant foxtail: 10
morningglory; [1]
  Plant response rating, Morningglory: 1
morningglory; [2]
  Plant response rating, Morningglory: 4
morningglory; [3]
  Morningglory plant response rating: 4
morningglory; [8]
  Plant response rating, Morningglory: 7
morningglory; [4]
  Morningglory plant response rating: 0
morningglory; [5]
  Morningglory plant response rating: 0
morningglory; [6]
  Plant response rating, Morningglory: 0
morningglory; [7]
  Plant response rating, Morningglory: 6
pigweed; [1]
  Plant response rating, Redroot pigweed: 0
pigweed; [2]
  Plant response rating, Redroot pigweed: 0
pigweed; [3]
  Redroot pigweed plant response rating: 3
pigweed; [4]
  Redroot pigweed plant response rating: 10
pigweed; [5]
  Redroot pigweed plant response rating: 10
pigweed; [6]
  Plant response rating, Redroot pigweed: 10
pigweed; [7]
  Plant response rating, Redroot pigweed: 10
rape; [1]
  Plant response rating, Rape: 2
rape; [2]
  Plant response rating, Rape: 5
rape; [3]
  Rape plant response rating: 7
rape; [8]
  Plant response rating, Rape: 9
rape; [4]
  Rape plant response rating: 6
rape; [5]
  Rape plant response rating: 6
rape; [6]
  Plant response rating, Rape: 7
rape; [7]
  Plant response rating, Rape: 9
soybean; [1]
  Plant response rating, Soybean: 3
soybean; [2]
  Plant response rating, Soybean: 4
soybean; [3]
  Soybean plant response rating: 4
soybean; [4]
  Soybean plant response rating: 0
soybean; [5]
  Soybean plant response rating: 0
soybean; [6]
  Plant response rating, Soybean: 0
soybean; [7]
  Plant response rating, Soybean: 2
Sugar beet; [1]
  Plant response rating, Sugarbeets: 3
Sugar beet; [2]
  Plant response rating, Sugarbeets: 3
Sugar beet; [3]
  Sugarbeets plant response rating: 7
Sugar beet; [4]
  Sugarbeets plant response rating: 3
Sugar beet; [5]
  Sugarbeets plant response rating: 5
Sugar beet; [6]
  Plant response rating, Sugarbeets: 8
Sugar beet; [7]
  Plant response rating, Sugarbeets: 9
velvetleaf; [1]
  Plant response rating, Velvetleaf: 0
velvetleaf; [2]
  Plant response rating, Velvetleaf: 0
velvetleaf; [3]
  Velvetleaf plant response rating: 2
velvetleaf; [4]
  Velvetleaf plant response rating: 0
velvetleaf; [6]
  Plant response rating, Velvetleaf: 3
velvetleaf; [7]
  Plant response rating, Velvetleaf: 7
wheat; [1]
  Plant response rating, Wheat: 0
wheat; [2]
  Plant response rating, Wheat: 0
wheat; [3]
  Wheat plant response rating: 2
wheat; [4]
  Wheat plant response rating: 0
wheat; [5]
  Wheat plant response rating: 0
wheat; [6]
  Plant response rating, Wheat: 3
wheat; [7]
  Plant response rating, Wheat: 4
Wild oat; [1]
  Plant response rating, Wild oats: 0
Wild oat; [2]
  Plant response rating, Wild oats: 0
Wild oat; [3]
  Wild oats plant response rating: 5
Wild oat; [4]
  Wild oats plant response rating: 2
Wild oat; [5]
  Wild oats plant response rating: 6
Wild oat; [6]
  Plant response rating, Wild oats: 9
Wild oat; [7]
  Plant response rating, Wild oats: 9
Purple nutsedge; [1]
  Plant response rating, Nutsedge: 0
Purple nutsedge; [2]
  Plant response rating, Nutsedge: 0
Purple nutsedge; [4]
  Nutsedge plant response rating: 0
Purple nutsedge; [5]
  Nutsedge plant response rating: 0
Purple nutsedge; [6]
  Plant response rating, Nutsedge: 3
Purple nutsedge; [7]
  Plant response rating, Nutsedge: 4

Source: patent publication US6737383B1, “Herbicidal oxadiazolidines” (priority 1999, dated 2004)
